# Where a name gives a salt, the structure may show the parent alone.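 Cultured in 96-well plates, cells were exposed to test compound for 48 hours across five concentrations. At the GI50, growth is halved.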 Calls of active or inactive are those of the source. Rule as the data show it: active = GI50 up to about 1.1 µM and inactive = higher. Starred links: 1 amine or outer side, 2 acyl side, 3 side chain; linkers in the order of their positions; H or OH if unused. Non-standard residues stand in square brackets, D forms with d. Residues, ends and D or L forms follow the SMILES beside them. ξ: configuration not given here. Ile(3ξ) = CCC(C)[C@H](N)C(=O)O; X35 = C=CCC(O[*:1])C(=O)[*:2]; NMeV = CN[C@H](C(=O)O)C(C)C; NMeA = CN[C@@H](C)C(=O)O; βAla = NCCC(=O)O
# How the values were obtained:
# Assay in all cases: NCI-60 cell line screen, 48 h
# [1] = system: DMS-114
# [2] = system: DMS-273
# [3] = system: M19-MEL
# [4] = system: HOP-18
# [5] = system: XF498
# [6] = system: KM-20L2
# [7] = system: LXFL 529
# [8] = system: RXF 631
# [9] = system: SNB-78
Structure (SMILES),GI50 [1],GI50 [2],GI50 [3],GI50 [4],GI50 [5],GI50 [6],GI50 [7],GI50 [8],GI50 [9]
Nc1nc(SCC(=O)c2ccccc2)c2[nH]cnc2n1,> 100 µM (inactive),> 100 µM (inactive),> 100 µM (inactive),> 100 µM (inactive),> 100 µM (inactive),> 100 µM (inactive),–,–,–
COc1ccc(C2=NN(C(C)=O)c3nc4ccccc4nc3O2)cc1,42.2 µM (inactive),42.1 µM (inactive),89.7 µM (inactive),17.7 µM (inactive),19.1 µM (inactive),–,31.4 µM (inactive),23 µM (inactive),–
CC(C)S(=O)(=O)n1c(N)nc2ccc(/C(=N/O)c3ccccc3)cc21 [ENVIROXIME],16.9 µM (inactive),31.4 µM (inactive),34 µM (inactive),–,–,16 µM (inactive),41.4 µM (inactive),–,36.4 µM (inactive)
COc1ccc(O)c2c1C(=O)CCCC2=O,> 100 µM (inactive),> 100 µM (inactive),> 100 µM (inactive),–,> 100 µM (inactive),> 100 µM (inactive),> 100 µM (inactive),> 100 µM (inactive),> 100 µM (inactive)
CCCCCCCCCCCc1c(O)c(=O)c2c(oc3c(=O)c(CCCCCCCCCCC)c(O)c(=O)c3n2-c2ccc(N(C)C)cc2)c1=O,24.8 µM (inactive),22.8 µM (inactive),–,22.6 µM (inactive),21.5 µM (inactive),19.3 µM (inactive),21.2 µM (inactive),–,55.2 µM (inactive)
C1=c2ccccc2=C2C(=C(c3ccccc3)C(c3ccccc3)=NN2c2ccccc2)S1,> 100 µM (inactive),> 100 µM (inactive),> 100 µM (inactive),> 100 µM (inactive),–,> 100 µM (inactive),> 100 µM (inactive),–,> 100 µM (inactive)
CN(C)c1nc(Oc2nc(N(C)C)nc(N(C)C)n2)nc(N(C)C)n1,51.4 µM (inactive),61 µM (inactive),82.4 µM (inactive),> 100 µM (inactive),84.7 µM (inactive),> 100 µM (inactive),> 100 µM (inactive),–,61.4 µM (inactive)
O=C1NC2OCC(O)C(O)C2O1 (centres undefined),> 100 µM (inactive),> 100 µM (inactive),> 100 µM (inactive),> 100 µM (inactive),–,> 100 µM (inactive),> 100 µM (inactive),–,> 100 µM (inactive)
C/C(=N\NS(=O)(=O)c1ccc(C)cc1)C(CN1CCCCC1)C(c1ccccc1)c1c(O)c2ccccc2oc1=O (centres undefined),–,–,–,> 100 µM (inactive),> 100 µM (inactive),> 100 µM (inactive),> 100 µM (inactive),–,> 100 µM (inactive)
O=C(O)CC(NC(=O)CP(=O)(O)O)C(=O)O (centres undefined),741 µM (inactive),119 µM (inactive),97.9 µM (inactive),3100 µM (inactive),596 µM (inactive),158 µM (inactive),–,–,973 µM (inactive)
C=CCc1cc(OC)c2c(c1)C(O)CC(c1ccc(OC)c(OC)c1)O2 (centres undefined),59.8 µM (inactive),> 100 µM (inactive),> 100 µM (inactive),> 100 µM (inactive),–,> 100 µM (inactive),> 100 µM (inactive),–,> 100 µM (inactive)
Cc1ccc(NC(=O)C(=O)CC(=O)c2c(C)[n+]([O-])c3ccccc3[n+]2[O-])cc1,18.2 µM (inactive),25.9 µM (inactive),16.4 µM (inactive),30.9 µM (inactive),–,30.8 µM (inactive),35.2 µM (inactive),36.5 µM (inactive),49.4 µM (inactive)
C=CCC1OC(=O)CCNC(=O)[C@H](C)N(C)C(=O)[C@H](C(C)C)N(C)C(=O)[C@H](C(C)CC)NC(=O)[C@@H]2CCCN2C1=O (some centres undefined) (cyclo([Ile(3ξ)][NMeV][NMeA][βAla][X35]P)),7.5 µM (inactive),3.63 µM (inactive),5.96 µM (inactive),–,3.65 µM (inactive),3.18 µM (inactive),3.94 µM (inactive),4.92 µM (inactive),> 100 µM (inactive)
CS(=O)(=O)Sc1ccc(Cl)cc1,–,5.15 µM (inactive),6.82 µM (inactive),26.8 µM (inactive),10.7 µM (inactive),11.9 µM (inactive),11.3 µM (inactive),7.38 µM (inactive),0.713 µM (active)
O=C1C(Cl)=C(Cl)C(=O)N1c1ccc(F)cc1 [FLUOROIMIDE],19.7 µM (inactive),25.8 µM (inactive),19.5 µM (inactive),21.1 µM (inactive),19.9 µM (inactive),22.1 µM (inactive),15.9 µM (inactive),28.9 µM (inactive),27 µM (inactive)
Clc1ccc(/N=N/c2nc3ccccc3nc2/N=N/c2ccc(Cl)cc2Cl)c(Cl)c1,> 100 µM (inactive),–,> 100 µM (inactive),–,> 100 µM (inactive),> 100 µM (inactive),78.5 µM (inactive),–,> 100 µM (inactive)
CC1=NCCc2c1[nH]c1cc(O)ccc21 [HARMALOL HYDROCHLORIDE],> 100 µM (inactive),–,> 100 µM (inactive),> 100 µM (inactive),> 100 µM (inactive),> 100 µM (inactive),> 100 µM (inactive),> 100 µM (inactive),> 100 µM (inactive)
CCSc1nc(N2CCCC2)s[s+]1.[O-][Cl+3]([O-])([O-])[O-],17.6 µM (inactive),49.5 µM (inactive),2.3 µM (inactive),> 100 µM (inactive),31 µM (inactive),55.6 µM (inactive),22.7 µM (inactive),–,74.8 µM (inactive)
COc1cc(/C=C/C(=O)c2sc(NNC(C)=O)nc2C)ccc1O,> 100 µM (inactive),> 100 µM (inactive),–,> 100 µM (inactive),–,> 100 µM (inactive),–,> 100 µM (inactive),> 100 µM (inactive)
O=C1[C@H]2ON(c3ccccc3)C(c3cccc([N+](=O)[O-])c3)[C@H]2C(=O)N1c1ccc(Cc2ccc(N3C(=O)[C@@H]4ON(c5ccccc5)C(c5cccc([N+](=O)[O-])c5)[C@@H]4C3=O)cc2)cc1 (some centres undefined),> 100 µM (inactive),> 100 µM (inactive),> 100 µM (inactive),> 100 µM (inactive),–,> 100 µM (inactive),> 100 µM (inactive),–,> 100 µM (inactive)
CC(O)C1OC(n2ccc(=O)[nH]c2=O)CC1n1cncn1 (centres undefined),> 100 µM (inactive),> 100 µM (inactive),> 100 µM (inactive),–,> 100 µM (inactive),> 100 µM (inactive),> 100 µM (inactive),–,–
O=C(O)C12C3CCCC1C2CC3 (centres undefined),> 100 µM (inactive),–,> 100 µM (inactive),> 100 µM (inactive),> 100 µM (inactive),> 100 µM (inactive),> 100 µM (inactive),> 100 µM (inactive),> 100 µM (inactive)
C/C(=N\NC(=O)CC#N)c1c(O)cc(C)oc1=O,–,–,> 100 µM (inactive),> 100 µM (inactive),–,> 100 µM (inactive),> 100 µM (inactive),> 100 µM (inactive),> 100 µM (inactive)
Nc1nc(Cl)c2ncn(CCCC(c3ccccc3)P(=O)(O)O)c2n1 (centres undefined),> 100 µM (inactive),> 100 µM (inactive),> 100 µM (inactive),> 100 µM (inactive),–,> 100 µM (inactive),> 100 µM (inactive),–,> 100 µM (inactive)
CCCCCC#COC1CC(C)CC[C@@H]1C(C)C (some centres undefined),–,65 µM (inactive),48 µM (inactive),> 100 µM (inactive),–,61.1 µM (inactive),97.9 µM (inactive),–,> 100 µM (inactive)
CCN(CC)c1ccc(/N=C2\C=C(Cl)C(=O)c3ncccc32)c(C)c1,2.67 µM (inactive),3.73 µM (inactive),4.68 µM (inactive),3.08 µM (inactive),5.78 µM (inactive),5.65 µM (inactive),–,13.5 µM (inactive),13.1 µM (inactive)

# Source: ChEMBL document CHEMBL1201862, “PubChem BioAssay data set” (2004)
